# In article PMC8693680 (RSC Advances, 2021):
# Molecular target: Bovine serum albumin (BSA) (Bos taurus, UniProt P02769)
# Assay: Trp fluorescence quenching
# Assay type: binding
# Details: 5 μM BSA, 0-15 μM dye, 10 mM HEPES pH 7.4, 298 K; double-log; n = 0.35
# Bovine serum albumin (BSA), sequence (P02769 25-607): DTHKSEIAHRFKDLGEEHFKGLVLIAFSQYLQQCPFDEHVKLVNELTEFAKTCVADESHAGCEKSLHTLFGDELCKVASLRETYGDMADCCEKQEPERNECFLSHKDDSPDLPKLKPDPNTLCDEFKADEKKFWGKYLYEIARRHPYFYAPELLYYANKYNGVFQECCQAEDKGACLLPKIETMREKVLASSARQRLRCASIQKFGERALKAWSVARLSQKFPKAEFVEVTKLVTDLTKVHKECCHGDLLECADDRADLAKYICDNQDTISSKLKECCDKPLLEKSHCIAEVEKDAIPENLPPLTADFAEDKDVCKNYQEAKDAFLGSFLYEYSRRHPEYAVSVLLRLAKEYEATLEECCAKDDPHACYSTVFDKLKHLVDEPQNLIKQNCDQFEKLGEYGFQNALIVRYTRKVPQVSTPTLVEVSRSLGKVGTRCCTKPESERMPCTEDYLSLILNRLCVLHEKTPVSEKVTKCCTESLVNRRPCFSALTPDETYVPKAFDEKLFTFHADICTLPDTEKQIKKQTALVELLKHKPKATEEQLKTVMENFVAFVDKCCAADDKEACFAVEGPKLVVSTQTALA
smiles,measurement,value
c1ccc2c(c1)Nc1ccccc1S2 [PTZ],"Binding constant, K′",6190 M⁻¹
